Assay results taken from PubChem BioAssay (NCI).
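Cells were grown in 96-well plates and exposed to each compound for 48 hours at five concentrations; endpoints were interpolated linearly between bracketing concentrations, or set to the highest concentration if not reached. TGI marks complete inhibition of growth.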

Key:
Experiment in all cases: NCI tumour cell line growth inhibition, 48 h
[1] = tested on: SK-MEL-28 melanoma
[2] = tested on: SK-MEL-2 melanoma
[3] = tested on: HCT-15 colon
[4] = tested on: NCI/ADR-RES ovarian
[5] = tested on: HS 578T breast
[6] = tested on: MOLT-4 leukemia
[7] = tested on: HOP-62 NSCLC
[8] = tested on: CCRF-CEM leukemia
[9] = tested on: IGROV1 ovarian
[10] = tested on: K-562 leukemia
[11] = tested on: SK-OV-3 ovarian
[12] = tested on: MCF7 breast

Structure (SMILES) | TGI [1] [µM] | TGI [2] [µM] | TGI [3] [µM] | TGI [4] [µM] | TGI [5] [µM] | TGI [6] [µM] | TGI [7] [µM] | TGI [8] [µM] | TGI [9] [µM] | TGI [10] [µM] | TGI [11] [µM] | TGI [12] [µM]
CN(NC(=O)c1cccs1)C1=NCCCCN1 | > 100 | > 100 | > 100 | > 100 | > 100 | > 100 | > 100 | > 100 | > 100 | > 100 | > 100 | > 100
CC1Oc2c(c(=O)oc3ccccc23)[C@@]1(C)CC1C[C@H](C)C(=O)O1 (stereo partly drawn) | 38.7 | > 100 | > 100 | > 100 | > 100 | 37.2 | > 100 | 32.9 | > 100 | 66 | > 100 | > 100
Clc1cc(Cl)cc(C2ON=C(c3ccccc3)N2C23CC4CC(CC(C4)C2)C3)c1 (stereo not drawn) | > 10 | > 10 | > 10 | > 10 | > 10 | > 10 | > 10 | > 10 | > 10 | > 10 | > 10 | > 10
CC(=O)O[C@H]1/C(=C/c2ccncc2)C[C@H]2[C@@H]3CC=C4C[C@@H](N5CCCC5)CC[C@]4(C)[C@H]3CC[C@]12C | 26 | 32.1 | 24.7 | 25.1 | 33.7 | 30.3 | 30.4 | 38.5 | 27.1 | 12.5 | 37 | 25.8
CN(C)CCN=C1Nc2ccccc2C(=S)N2CSCC12 (stereo not drawn) | > 100 | > 100 | > 100 | > 100 | > 100 | > 100 | > 100 | > 100 | > 100 | > 100 | > 100 | > 100
CC(=O)NC(CCC(=O)C=[N+]=N)C(=O)O (stereo not drawn) | > 100 | > 100 | > 100 | > 100 | > 100 | > 100 | > 100 | > 100 | > 100 | > 100 | > 100 | > 100
COCCCNC(=O)C1=C(C)NC(C)=C(C(=O)NCCCOC)C1 | > 100 | > 100 |  | > 100 | > 100 | > 100 | > 100 | > 100 | 26.9 | > 100 | > 100 | > 100
c1ccc(CNCCCCNCCCNCc2ccccc2)cc1 | 31.2 | > 100 | 39.4 | > 100 | 29.7 | 33.2 | 60.8 | 32.4 | 26.7 | 34.2 | > 100 | > 100
CC(NC(=O)C(N)CC(=O)O)NC(=O)C1CCC1 (stereo not drawn) | > 100 | > 100 | > 100 | > 100 | > 100 | > 100 | > 100 | > 100 |  | > 100 | > 100 | > 100
CC(C)NC(=O)OCc1c(COC(=O)NC(C)C)c(-c2cc[n+](COC(=O)C(C)(C)C)cc2)n2c1CCC2 | > 100 | > 100 | > 100 | > 100 | > 100 | > 100 | > 100 | > 100 | > 100 | > 100 | > 100 | > 100
Cc1ccc(Nc2c(C#N)[n+]([O-])c3cc(Cl)ccc3[n+]2[O-])cc1 | > 100 | > 100 | > 100 | > 100 | > 100 | > 100 | > 100 | > 100 | > 100 | > 100 | > 100 | > 100
Cc1oc2c(Cl)cc(O)c(Cl)c2c2cccc1-2 | 57.5 | > 100 | 75.4 | 79.9 | > 100 |  | 66.5 | 95.3 | 75.4 | 47.4 | > 100 | > 100
C=C(C)[C@@]1(OC(=O)c2cc([N+](=O)[O-])cc([N+](=O)[O-])c2)C[C@@H]2CCCC[C@@H]21 | > 100 | > 100 | > 100 | > 100 | > 100 | > 100 | > 100 | > 100 | > 100 | > 100 | > 100 | > 100
O=c1oc2ccccc2c(O)c1/C=N/C(=S)NCCc1ccccc1 | > 100 | > 85.1 | > 100 | > 100 | > 100 | > 100 | > 100 | 86.1 | > 100 | > 100 | > 63.8 | > 100
CCOC(=O)CSc1nnc2cc(CN3CCCC3)c(-c3ccc(Cl)cc3)nn12 | > 100 | > 100 | > 100 | > 100 | > 100 | > 100 | > 100 | > 100 | > 100 | > 100 | > 100 | > 100
CCOc1ccc(N/C(Cl)=C(Cl)\C(=C(\Nc2ccc(OCC)cc2)n2nnc3ccccc32)[N+](=O)[O-])cc1 | 20.9 | 35.5 | 7.4 | > 100 | > 100 | > 100 | > 100 | 33.9 | 5.33 | > 21.6 | > 100 | 24.6
CCOC(=O)C(C)NC(=O)C(C)NC(=O)C(C)NC(=O)C(C)NC(=O)C(C)NC(=O)OCc1ccccc1 (stereo not drawn) | > 100 | > 100 | > 100 | > 100 | > 100 | > 100 | > 100 | > 100 | > 100 | > 100 | > 100 | > 100
CC(=O)Oc1ccccc1/C=C/C(=O)/C=C/c1ccccc1OC(C)=O | 4.09 | 21.1 | 9.34 | 7.39 | > 51.9 | 5.71 | 5.32 | 12.6 | 4.52 | 4.53 | 13.6 | 4.99
O=c1ccn(C2OC(CO)C(O)C2[Se]c2ccccc2)c(=O)[nH]1 (stereo not drawn) | > 100 | > 100 | > 100 | > 100 | > 100 | > 100 | > 100 | > 100 | > 100 | > 100 | > 100 | > 100
O=C(Nc1ccccc1)N(C1=NCC(CI)S1)c1ccc(F)cc1F (stereo not drawn) | 83.4 | > 100 | > 100 | > 100 | > 100 | 57 | > 100 | 48.1 | 52 | > 100 | > 100 | > 100
COc1cc2cccc(N)c2cc1OC | > 100 | > 100 | > 100 | > 100 | > 100 | > 100 | > 100 | > 100 | > 100 | > 100 | > 100 | > 100
CO/N=C(\C(=O)N(C)n1cnnc1)c1csc(NC(c2ccccc2)(c2ccccc2)c2ccccc2)n1 | > 10 | > 10 | > 10 | > 10 | > 10 | > 10 | > 10 | > 10 | > 10 | > 10 | > 10 | > 10
CC(SC(=S)N1CCOCC1)C(=O)Nc1nnc(-c2ccccc2)o1 (stereo not drawn) | > 100 | > 100 | > 100 | 96.4 | > 100 | > 100 | > 100 | 18.3 | > 100 | > 100 | > 100 | > 100
Cc1ccc(S(=O)(=O)N2CCSCCN(S(=O)(=O)c3ccc(C)cc3)CCN(S(=O)(=O)c3ccc(C)cc3)CC2)cc1 | > 100 | 79.9 |  | > 100 | > 100 | > 100 | 69 | > 100 | > 100 | > 100 | 86.7 | > 100
COc1cc(OC)c2nc(C)c3c(c2c1)NCC3 | 28.5 | 21.4 | 25.9 | 71.2 | 15.1 |  | 21.6 | 31.3 | 34 | 27.7 | 49.6 | 17.8
Nc1ccn(C2CCC(CO)O2)c(=S)n1 (stereo not drawn) |  | > 100 | > 100 | > 100 | > 100 | > 100 | > 100 | > 100 | > 100 | > 100 | > 100 | > 100
COc1cccc2c1OC(c1ccc(C#N)cc1)C([N+](=O)[O-])=C2 (stereo not drawn) | 5.93 | 4.38 | 3.11 | > 100 | 5.74 |  | 8.3 | 4.51 | 3.76 | > 100 | 7.67 | 2.88
C1=C(c2ccccc2)Nc2nnnn2C1c1ccccc1 (stereo not drawn) |  | > 100 | 37.7 | > 100 | > 100 | 60.3 | > 100 | 0.0305 | > 100 | > 100 | > 100 | 84.6
